# From US11873298B2, “Compounds and uses thereof” (JANSSEN PHARMACEUTICA NV, priority 2017, dated 2024)
# pIC50: −log10 of the molar value.
# Legend:
# SCD1 = target: T1, SCD1 (Homo sapiens, UniProt O00767); experiment: Growth inhibition of humanized yeast strain expressing SCD1 as sole desaturase; format: cell-based
# T1 construct: host or cells: S. cerevisiae ole1Δ strain (W303 pdr1Δ pdr3Δ background), plasmid pRS316 with TDH3 promoter and CYC1 terminator
# T1 sequence (O00767 1-359): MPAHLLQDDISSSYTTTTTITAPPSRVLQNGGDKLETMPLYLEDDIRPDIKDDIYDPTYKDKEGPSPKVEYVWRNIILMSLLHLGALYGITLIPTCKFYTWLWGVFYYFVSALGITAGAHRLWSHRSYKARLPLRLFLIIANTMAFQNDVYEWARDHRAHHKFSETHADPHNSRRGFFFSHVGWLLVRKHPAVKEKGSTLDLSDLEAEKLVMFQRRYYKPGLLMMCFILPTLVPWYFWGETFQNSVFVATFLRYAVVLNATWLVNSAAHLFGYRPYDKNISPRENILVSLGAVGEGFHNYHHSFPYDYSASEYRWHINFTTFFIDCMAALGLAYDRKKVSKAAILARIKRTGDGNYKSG
# Experimental: Strain oleΔ (yeast ole1 deletion mutant) was constructed by deleting OLE1 with NAT-MX6 in BY4741, amplifying the deletion cassette from the genomic DNA of the resulting strain with primers flanking the ORF by 1000 bp upstream and downstream, transforming the resulting deletion cassette into W303 pdr1Δ pdr3Δ, and plating transformants on YPD media containing G418 (200 μg/mL) and nourseothricin ([…]) with 0.01% TWEEN®-20 and 0.5 mM oleic and palmitoleic acids.
# The coding sequence of yeast OLE1 was also cloned into this plasmid). These clones were then transformed into the ole1Δ strain and plated on CSM-Ura media (CSM lacking uracil) with 2% glucose (w/v) and independent colonies were isolated and amplified.
# All compound profiling experiments were performed using the same basic protocol. Different genetic backgrounds (e.g., gene deletions) or conditions (e.g., addition of oleic and palmitoleic acid) were replaced as indicated below.
# Yeast were cultured using standard techniques in complete synthetic media (CSM) and yeast nitrogen base supplemented with 2% (w/v) carbon source (glucose, raffinose, or galactose) to regulate the expression of the toxic disease protein. An initial starter culture was inoculated in 3 mL CSM-Glucose media and incubated overnight in a 30° C. shaker incubator (225 rpm). Saturated morning cultures were then diluted 1:20 in fresh CSM-Raffinose media and grown for 6 h to an OD600 (optical density) of ˜0.4-0.8 at 30° C. with shaking.
# Compound administration was performed in two separate steps. First, 15 μL of CSM-Galactose (induces expression of toxic protein) was dispensed into clear 384 well assay plates using a MULTIDROP™ Combi reagent dispenser. […] The cultures described above were then diluted to a 2× concentration (0.03 and 0.08 for alpha-synuclein and ApoE, final ODsoo of 0.015 and 0.04) in CSM-Galactose. For wild-type and Ole1/SCD1/SCD5 plasmid-containing strains, the 2× cell density was 0.02. […] For 96-well assays (FIGS. 1A and 1B), compound dilutions in DMSO were generated in 96 well plates and 1 μL was manually pipetted into 96 well clear bottom assay plates.
# For experiments using a plasmid-borne copy of Ole1, SCD1, or SCD5 (FIGS. 3B, 6, and 7), media lacking uracil (SX-Ura, where X is glucose, raffinose, or galactose), was used for all steps of the compound profiling protocol to ensure its maintenance throughout the assay.
# After yeast delivery, assay plates were incubated under humidified conditions at 30° C. for 24 to 40 h. ApoE4 rescue experiments were stopped at 24 h, aSyn experiments at 40 h, Ole1 at 24 h, and SCD1/SCD5 at 40 h. The growth of yeast was monitored by reading the ODsoo of each well using a microplate reader (Perkin Elmer EnVision™).
# SCD5 = target: T2, SCD5 (Homo sapiens, UniProt Q86SK9); experiment: Growth inhibition of humanized yeast strain expressing SCD5 as sole desaturase; format: cell-based
# T2 construct: host or cells: S. cerevisiae ole1Δ strain (W303 pdr1Δ pdr3Δ background), plasmid pRS316 with TDH3 promoter and CYC1 terminator
# T2 sequence (Q86SK9 1-330): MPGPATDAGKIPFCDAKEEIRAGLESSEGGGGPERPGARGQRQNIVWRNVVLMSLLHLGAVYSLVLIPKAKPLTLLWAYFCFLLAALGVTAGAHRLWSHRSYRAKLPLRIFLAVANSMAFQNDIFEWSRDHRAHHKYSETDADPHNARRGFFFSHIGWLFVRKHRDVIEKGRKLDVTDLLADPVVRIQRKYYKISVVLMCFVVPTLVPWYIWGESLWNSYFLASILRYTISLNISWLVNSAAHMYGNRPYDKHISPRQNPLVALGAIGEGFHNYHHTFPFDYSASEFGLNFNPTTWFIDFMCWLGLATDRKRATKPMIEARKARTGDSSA
# In short: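 OD600 growth read-out. ole1Δ yeast, pdr1Δ pdr3Δ, with Ole1/SCD1/SCD5 on a plasmid; SX-Ura media throughout; 2× cell density 0.02 in CSM-Galactose; DMSO compound dilutions; humidified 30° C.; Ole1 stopped at 24 h, SCD1/SCD5 at 40 h.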
# [1] = growth inhibition of humanized yeast strain expressing human SCD1
# [2] = growth inhibition of humanized yeast strain expressing human SCD5
# [3] = humanized yeast strain expressing SCD1
# [4] = humanized yeast strain expressing SCD5
# [5] = yeast strain expressing human SCD1 as sole desaturase, Table 8
# [6] = yeast strain expressing human SCD5 as sole desaturase, Table 8
Structure (SMILES),"pIC50 (SCD1; humanized yeast strain, 40 h)","pIC50 (SCD5; humanized yeast strain, 40 h)",other results
O=C(c1ccccc1F)N1CCC(c2noc(-c3ccnc(C4CCOC4)c3)n2)CC1 (centres unmarked) [Compound 1099],< 4.35,5.73,
CC1(OC(=O)N2CCN(c3nc(-c4ccc5cnn(C6COC6)c5c4)no3)CC2)CC1 [Compound 620],,,pIC50 (SCD1; [1]): < 4.35; pIC50 (SCD5; [2]): 7.89
O=C(C1CC2(CC2)C1)N1CCN(c2noc(-c3ccc4cnn(C5COC5)c4c3)n2)CC1 [Compound 864],< 4.35,< 4.35,
CCC(=O)N1CCC(c2noc(-c3ccc4c(C)nn(C)c4c3)n2)CC1 [Compound 939],< 4.35,4.96,
O=C(N1CCC(c2noc(-c3cnc4cnn(C5COC5)c4c3)n2)CC1)C1(F)CC1 [Compound 1140],< 4.35,7.21,
CC(C)n1ncc2ccc(-c3nc(C4CCN(C(=O)c5ncccc5F)CC4)no3)cc21 [Compound 714],,,pIC50 (SCD1; [1]): < 4.35; pIC50 (SCD5; [2]): 6.64
C[C@@H]1C[C@@H](c2noc(-c3ccc4cnn(C5COC5)c4c3)n2)CCN1C(=O)C1(F)CC1 [Compound 1065],< 4.35,9.41,
Cc1nn(C)c2cc(-c3noc(C4CCN(CC5COC(=O)C5)CC4)n3)ccc12 (centres unmarked) [Compound 567],,,pIC50 (SCD1; [3]): < 4.35; pIC50 (SCD5; [4]): < 4.35
O=C(C1CCC1)N1CCC(c2noc(-c3cc(F)c4cnn(C5COC5)c4c3)n2)CC1 [Compound 1061],< 4.35,8.00,
CC(C)(C)CCC(=O)N1CC(c2nc(-c3ccc4cnn(C5COC5)c4c3)no2)C1 [Compound 749],< 4.35,4.68,
O=C(N1CCN(c2noc(-c3ccc4cnn(C5COC5)c4c3)n2)CC(F)(F)C1)C1(F)CC1 [Compound 1057],< 4.35,7.64,
COC(=O)N1CCC(c2noc(-c3ccnc(-c4cnn(C)c4)c3)n2)CC1 [Compound 1265],,,pIC50 (SCD1; [5]): 4.87; pIC50 (SCD5; [6]): 4.96
CC(C)(C)OC(=O)N1CCC(/C(N)=N/OC(=O)c2ccc3cnn(C4COC4)c3c2)CC1 [Compound 1134],< 4.35,7.57,
CC(C)(C)OC(=O)N1CCC(c2noc(-c3ccc4ccn(C5COC5)c4c3)n2)CC1 [Compound 1039],4.80,8.00,
CC(C)n1ncc2ccc(-c3nc(C4CCN(C(=O)OC(C)(C)C)C4)no3)cc21 (centres unmarked) [Compound 524],,,pIC50 (SCD1; [3]): < 4.35; pIC50 (SCD5; [4]): 5.60
CC(C)(C)OC(=O)N1CCC(c2cc(-c3cnc4cnn(C5CCOC5)c4c3)on2)CC1 (centres unmarked) [Compound 1233],,,pIC50 (SCD1; [5]): 4.61; pIC50 (SCD5; [6]): 5.18
COC(=O)N1CCC(c2nc(-c3ccc4cn[nH]c4c3)no2)CC1 [Compound 936],< 4.35,5.46,
Cn1ncc2ccc(-c3noc(C4CCN(C(=O)OC(C)(C)C)CC4)n3)cc21 [Compound 359],,,SCD1 % Max Inhibition (SCD1; [3]): 55.70%; pIC50 (SCD5; [4]): < 4.35; SCD5 % Max Inhibition (SCD5; [4]): 0.81%
COC(=O)N1CCC(c2noc(-c3ccc4cnn(C(CO)CO)c4c3)n2)CC1 [Compound 834],< 4.35,< 4.35,
COC(=O)N1CCN(c2noc(-c3ccc4cnn(C(C)C)c4c3)n2)CC1 [Compound 630],,,pIC50 (SCD1; [1]): 4.99; pIC50 (SCD5; [2]): 7.85
CC(C)n1ncc2ccc(-c3noc(C4CCN(C(=O)COc5ccccc5)CC4)n3)cc21 [Compound 358],,,SCD1 % Max Inhibition (SCD1; [3]): 59.61%; pIC50 (SCD5; [4]): < 4.35; SCD5 % Max Inhibition (SCD5; [4]): 4.53%
CCC(=O)N1CCN(c2noc(-c3ccnc(NC4COC4)c3)n2)CC1 [Compound 978],< 4.35,< 4.35,
CC(C)(C)OC(=O)N1CCC(c2nc(-c3ccccc3)no2)CC1 [Compound 808],< 4.35,5.24,

Structure (SMILES),"pIC50 (SCD1; humanized yeast strain, 40 h)","pIC50 (SCD5; humanized yeast strain, 40 h)",other results
CC(C)n1ncc2ccc(-c3nc(C4CCNC4)no3)cc21 (centres unmarked) [Compound 531],,,pIC50 (SCD1; [3]): < 4.35; pIC50 (SCD5; [4]): < 4.35
CC1(CC(=O)N2CCC(c3nc(-c4ccc5cnn(C6COC6)c5c4)ns3)CC2)CC1 [Compound 801],< 4.35,6.44,
COC1(C(=O)N2CCN(c3noc(-c4ccc5cnn(C(C)C)c5c4)n3)CC2)CC1 [Compound 889],4.88,5.72,
CC(C)n1nc(CCN)c2ccc(-c3noc(C4CCN(C(=O)OC(C)(C)C)CC4)n3)cc21 [Compound 761],< 4.35,< 4.35,
CC(C)n1ncc2ccc(-c3noc(C4CCN(S(=O)(=O)C5CCCCC5)CC4)n3)cc21 [Compound 516],,,pIC50 (SCD1; [3]): < 4.35; pIC50 (SCD5; [4]): < 4.35
CC(C)(C)OC(=O)N1CCC(c2noc(-c3ccc4oc(=O)n(C5COC5)c4c3)n2)CC1 [Compound 1005],< 4.35,8.00,
COC(=O)N1CCC(c2nc(N3CCc4cnn(C(C)C)c4C3)no2)CC1 [Compound 908],< 4.35,6.72,
O=C(C1CC1)N1CCN(c2nnc(-c3ccc4cnn(C5COC5)c4c3)o2)CC1 [Compound 987],< 4.35,< 4.35,
COCC(C)(C)n1ncc2ccc(-c3noc(C4CCN(C(=O)CC(C)(C)C)CC4)n3)cc21 [Compound 802],< 4.35,4.85,
COC(=O)N1CCC(c2cc(-c3cc4c(cn3)cnn4C3COC3)on2)CC1 [Compound 1111],< 4.35,6.75,
COC(=O)N1CCC(c2noc(-c3ccc4cnn(C5CNC5)c4c3)n2)CC1 [Compound 948],< 4.35,< 4.35,
CC(C)n1ncc2ccc(-c3nc(C4CN(C(=O)OC(C)(C)C)C4)no3)cc21 [Compound 605],,,pIC50 (SCD1; [3]): 4.50; pIC50 (SCD5; [4]): 6.29
COC(=O)N1CCC(c2noc(-c3cccc(C4CCO4)c3)n2)CC1 (centres unmarked) [Compound 1191],< 4.35,5.87,
COC(=O)N1CCN(c2nc(-c3ccc4cnn(C5CNC5)c4c3)no2)CC1 [Compound 913],< 4.35,4.86,
CC(C)n1ncc2ccc(-c3nc(N4CCN(C(=O)c5ccccc5Cl)CC4)no3)cc21 [Compound 580],,,pIC50 (SCD1; [3]): 4.85; pIC50 (SCD5; [4]): 7.66
O=C(c1ccccc1Cl)N1CCN(c2noc(-c3ccc4cnn(C5COC5)c4c3)n2)CC1 [Compound 726],,,pIC50 (SCD1; [1]): 5.25; pIC50 (SCD5; [2]): 8.00
O=S(=O)(C1CCC1)N1CCC(c2noc(-c3ccc4cnn(C5COC5)c4c3)n2)CC1 [Compound 969],< 4.35,5.85,
Fc1c(-c2nc(C3CCNCC3)no2)ccc2cnn(C3COC3)c12 [Compound 989],< 4.35,< 4.35,
CC(C)(C)OC(=O)N1CC(c2nc(-c3ccc4cn(C5COC5)nc4c3)no2)C1 [Compound 708],,,pIC50 (SCD1; [1]): < 4.35; pIC50 (SCD5; [2]): < 4.35
COC(=O)N1CCN(c2noc(-c3ccc4cnn(C5CS(=O)(=O)C5)c4c3)n2)CC1 [Compound 998],< 4.35,5.38,
CC(C)c1noc2ccc(-c3noc(C4CCNCC4)n3)cc12 [Compound 723],,,pIC50 (SCD1; [1]): < 4.35; pIC50 (SCD5; [2]): < 4.35
CC1(C(=O)N2CCN(c3nc(-c4ccc5cnn(C6COC6)c5c4)no3)CC2)CCOC1 (centres unmarked) [Compound 924],< 4.35,5.39,
